Assays:
[1] = Experiment 7 (second): injection in white mice for about 15 days; format: in vivo; conditions: 5 per group, injected for about 15 days
Source text: Experimental animals: We classified 20 white mice in 4 groups every group has 5 mice.

[2] = cited from earlier work

SMILES: NC[C@H]1CC[C@H](C(=O)O)CC1 [tranexamic acid]
- survival of the mice [1]: still alive
- time of peak plasma concentration ([2]; absorption via the GIT): 2 h
- excretion ([2]; chemical part): excreted in the urine mainly as unchanged drug
- protein binding ([2]; in vivo): very low
- absorption ([2]; via the GIT): easily absorbed via the GIT
